In US8497307B2, “Aryl guanidine F1F0-ATPase inhibitors and related methods” (The Regents of the University of Michigan, priority 2008, dated 2013) one finds EC50 data, which are given here for 68 compounds.

Some results are limits rather than exact numbers.

The assay concerns Ramos cells. Briefly: Cytotoxicity in Ramos cells (cell death). It is filed as cell-based. The protocol:
The compounds listed in Table 7 were tested for cytotoxicity in Ramos cells. The assay was conducted as described in K. M. Johnson et al. Chemistry & Biology 2005, 12, 485-496.

`CC(C)(C)c1ccccc1NC(=NC(=O)c1ccc(C(F)(F)F)cc1)Nc1ccc2oc(=O)[nH]c2c1` [Compound I-129] gave an EC50 of less than 10 µM. Compound `O=C(N=C(Nc1ccc(-c2ccccc2)cc1)Nc1ccc2[nH]ncc2c1)c1ccc(F)cc1` [II-16] returned an EC50 of less than 10 µM. As for `O=C(N=C(Nc1ccc(-c2ccccc2)cc1)Nc1ccc2[nH]c(=O)[nH]c2c1)c1ccc(F)cc1` [Compound I-16], the figure is more than 10 µM; as for `CC(C)(C)c1cccc(NC(=NC(=O)c2ccc(C(F)(F)F)c(F)c2)Nc2ccc3[nH]c(=O)oc3c2)c1` [Compound I-108], less than 10 µM; as for `CC(C)(C)c1ccccc1NC(=NC(=O)c1ccc(F)cc1)Nc1ccc2[nH]c(=O)oc2c1` [Compound I-24], less than 10 µM. As for `CC(C)(C)c1ccc(NC(=NC(=O)c2cccc(C#N)c2)Nc2ccc3[nH]c(=O)oc3c2)cc1` [Compound I-119], the concentration giving a half-maximal response (EC50) is less than 10 µM.

`O=C(N=C(Nc1ccc2ccccc2c1)Nc1ccc2[nH]ncc2c1)c1cccc(Cl)c1` [II-11] showed an EC50 of less than 10 µM. As for `N#Cc1cccc(C(=O)N=C(Nc2cccc(C(F)(F)F)c2)Nc2ccc3[nH]c(=O)oc3c2)c1` [Compound I-102], the figure is less than 10 µM; as for `O=C(N=C(NCCc1c[nH]cn1)Nc1ccccc1C(F)(F)F)c1ccc(F)cc1` [III-3], more than 10 µM. As for `O=C(N=C(Nc1ccc2[nH]c(=O)oc2c1)Nc1ccccc1Cl)c1ccc(C(F)(F)F)cc1` [Compound I-93], the figure is less than 10 µM. As for `CC(C)(C)c1ccccc1NC(=NC(=O)c1ccc(C(F)(F)F)cc1)Nc1ccc2[nH]c(=O)oc2c1` [Compound I-86], the figure is less than 10 µM; as for `N#Cc1cccc(C(=O)N=C(Nc2cccc(C3CC3)c2)Nc2ccc3[nH]c(=O)oc3c2)c1` [Compound I-110], less than 10 µM.

`N#Cc1cccc(C(=O)N=C(Nc2ccc(Cl)cc2)Nc2ccc3[nH]c(=O)oc3c2)c1` [Compound I-115] gave an EC50 of less than 10 µM.

`CC(C)(C)c1cccc(NC(=NC(=O)c2cccc(C#N)c2)Nc2ccc3[nH]c(=O)oc3c2)c1` [Compound I-111] yielded a concentration giving a half-maximal response (EC50) of less than 10 µM.

With `CC(C)(C)c1ccccc1NC(=NC(=O)c1ccc(Br)cc1)NCCc1c[nH]cn1` [III-4], the EC50 was less than 10 µM. In the case of `CC(C)(C)c1ccccc1NC(=NC(=O)c1ccc(F)cc1)NCCc1c[nH]cn1` [III-7], the EC50 is more than 10 µM. In turn, `O=C(N=C(Nc1ccc2[nH]c(=O)[nH]c2c1)Nc1ccccc1C(F)(F)F)c1ccc(Br)cc1` [Compound I-1] came in with an EC50 of more than 10 µM. `CC(C)(C)c1ccccc1NC(=NC(=O)c1ccc(Br)cc1)Nc1ccc2[nH]c(=O)[nH]c2c1` [Compound I-5] gave an EC50 of less than 10 µM. For `CC(C)(C)c1ccc(NC(=NC(=O)c2ccc(C(F)(F)F)cc2)Nc2ccc3[nH]c(=O)oc3c2)cc1` [Compound I-128] the value was less than 10 µM; for `CC(C)(C)c1ccccc1NC(=NC(=O)c1ccc(Br)cc1)Nc1ccc2[nH]c(=O)oc2c1` [Compound I-21], less than 10 µM; for `O=C(N=C(Nc1ccc2[nH]ncc2c1)Nc1ccccc1C(F)(F)F)c1ccc(Cl)cc1` [II-2], less than 10 µM. As for `CC(C)(C)c1cccc(NC(=NC(=O)c2ccc(C(F)(F)F)cc2)Nc2ccc3[nH]c(=O)oc3c2)c1` [Compound I-120], the half-maximal effective concentration (EC50) is less than 10 µM. For `CC(C)(C)c1ccccc1NC(=NC(=O)c1ccc(C(F)(F)F)cc1F)Nc1ccc2[nH]c(=O)oc2c1` [Compound I-107] the value was less than 10 µM; for `N#Cc1cccc(C(=O)N=C(Nc2cccc(Cl)c2)Nc2ccc3[nH]c(=O)oc3c2)c1` [Compound I-114], less than 10 µM. `CC(C)(C)c1ccccc1NC(=NC(=O)c1cccc(Cl)c1)Nc1ccc2[nH]ncc2c1` [II-7] gave an EC50 of less than 10 µM.

For the compound `O=C(N=C(Nc1cccc(Cl)c1)Nc1ccc2[nH]ncc2c1)c1ccc(C(F)(F)F)cc1` [II-20], the EC50 is less than 10 µM. `CC(C)(C)c1ccccc1NC(=NC(=O)c1ccc(Cl)cc1)Nc1ccc2[nH]ncc2c1` [II-6] gave an EC50 of less than 10 µM. For `O=C(N=C(Nc1ccc2ccccc2c1)Nc1ccc2[nH]c(=O)[nH]c2c1)c1ccc(Cl)cc1` [Compound I-10] the value was more than 10 µM; for `N#Cc1cccc(C(=O)N=C(Nc2ccc3[nH]c(=O)oc3c2)Nc2ccccc2C(F)(F)F)c1` [Compound I-101], more than 10 µM; for `O=C(N=C(Nc1ccc2ccccc2c1)Nc1ccc2[nH]c(=O)[nH]c2c1)c1ccc(F)cc1` [Compound I-12], more than 10 µM. As for `O=C(N=C(Nc1cccc(C(F)(F)F)c1)Nc1ccc2[nH]c(=O)oc2c1)c1ccc(C(F)(F)F)cc1` [Compound I-85], the figure is less than 10 µM. Regarding `O=C(N=C(Nc1ccc2[nH]c(=O)oc2c1)Nc1ccccc1C1CC1)c1ccc(C(F)(F)F)cc1` [Compound I-121], the EC50 is less than 10 µM.

`O=C(N=C(NCCc1c[nH]cn1)Nc1ccc2ccccc2c1)c1ccc(F)cc1` [III-11]: the concentration for a half-maximal effect (EC50) was more than 10 µM. For `O=C(N=C(Nc1ccc2ccccc2c1)Nc1ccc2[nH]c(=O)oc2c1)c1ccc(F)cc1` [Compound I-28] the value was less than 10 µM.

For the compound `O=C(N=C(Nc1cccc(Cl)c1)Nc1ccc2[nH]c(=O)oc2c1)c1ccc(C(F)(F)F)cc1` [Compound I-88], the concentration for a half-maximal effect (EC50) is less than 10 µM. With `O=C(N=C(Nc1ccc2[nH]c(=O)oc2c1)Nc1ccccc1C(F)(F)F)c1ccc(Cl)cc1` [Compound I-18], the concentration for a half-maximal effect (EC50) was less than 10 µM. As for `O=C(N=C(Nc1cccc(Cl)c1)Nc1ccc2[nH]ncc2c1)c1ccc(Cl)cc1` [II-23], the figure is less than 10 µM; as for `O=C(N=C(Nc1cccc(C(F)(F)F)c1)Nc1ccc2[nH]ncc2c1)c1ccc(Cl)cc1` [II-21], less than 10 µM. `O=C(N=C(Nc1cccc(C(F)(F)F)c1)Nc1ccc2[nH]ncc2c1)c1ccc(C(F)(F)F)cc1` [II-17] yielded a concentration giving a half-maximal response (EC50) of less than 10 µM. As for `O=C(N=C(Nc1ccc(-c2ccccc2)cc1)Nc1ccc2[nH]c(=O)[nH]c2c1)c1ccc(Br)cc1` [Compound I-13], the figure is more than 10 µM. On to `O=C(N=C(NCCc1c[nH]cn1)Nc1ccc2ccccc2c1)c1cccc(Cl)c1` [III-10], for which the concentration giving a half-maximal response (EC50) is less than 10 µM. As for `O=C(N=C(Nc1ccc(-c2ccccc2)cc1)Nc1ccc2[nH]c(=O)[nH]c2c1)c1cccc(Cl)c1` [Compound I-15], the figure is more than 10 µM; as for `O=C(N=C(Nc1ccc2ccccc2c1)Nc1ccc2[nH]ncc2c1)c1ccc(Cl)cc1` [II-10], less than 10 µM. In the case of `O=C(N=C(Nc1ccc2[nH]c(=O)oc2c1)Nc1ccccc1C(F)(F)F)c1ccc(F)cc1` [Compound I-20], the half-maximal effective concentration (EC50) was more than 10 µM. `CC(C)(C)c1ccccc1NC(=NC(=O)c1ccc(C(F)(F)F)c(F)c1)Nc1ccc2oc(=O)[nH]c2c1` [Compound I-131]: the EC50 was less than 10 µM.

As to `CC(C)(C)c1ccccc1NC(=NC(=O)c1ccc(Cl)cc1)Nc1ccc2[nH]c(=O)[nH]c2c1` [Compound I-6], the concentration giving a half-maximal response (EC50) is less than 10 µM. For `O=C(N=C(Nc1cc(Cl)cc(Cl)c1)Nc1ccc2[nH]c(=O)oc2c1)c1ccc(C(F)(F)F)cc1` [Compound I-125] the value was less than 10 µM; for `N#Cc1cccc(C(=O)N=C(Nc2ccc(C3CC3)cc2)Nc2ccc3[nH]c(=O)oc3c2)c1` [Compound I-138], less than 10 µM. Compound `CC(C)(C)c1ccccc1NC(=NC(=O)c1ccc(Br)cc1)Nc1ccc2[nH]ncc2c1` [II-5] returned an EC50 of less than 10 µM. As for `CC(C)(C)c1ccccc1NC(=NC(=O)c1ccc(Cl)cc1)NCCc1c[nH]cn1` [III-5], the figure is less than 10 µM.

Compound `O=C(N=C(Nc1ccc(Cl)cc1)Nc1ccc2[nH]ncc2c1)c1ccc(C(F)(F)F)cc1` [II-19] showed an EC50 of less than 10 µM. `O=C(N=C(Nc1ccc(-c2ccccc2)cc1)Nc1ccc2[nH]ncc2c1)c1ccc(Br)cc1` [II-13] came in with a concentration giving a half-maximal response (EC50) of less than 10 µM.

Regarding `O=C(N=C(Nc1ccc(-c2ccccc2)cc1)Nc1ccc2[nH]ncc2c1)c1cccc(Cl)c1` [II-15], the EC50 was less than 10 µM.

For `O=C(N=C(Nc1ccc2[nH]c(=O)oc2c1)Nc1ccccc1C(F)(F)F)c1cccc(Cl)c1` [Compound I-19], the EC50 was less than 10 µM. For the compound `N#Cc1cccc(C(=O)N=C(Nc2ccc(C(F)(F)F)cc2)Nc2ccc3[nH]c(=O)oc3c2)c1` [Compound I-118], the 50% effective concentration (EC50) is more than 10 µM. As for `O=C(N=C(Nc1cccc(Cl)c1)Nc1ccc2[nH]c(=O)oc2c1)c1ccc(Cl)cc1` [Compound I-91], the figure is less than 10 µM; as for `O=C(N=C(Nc1ccc(-c2ccccc2)cc1)Nc1ccc2[nH]c(=O)oc2c1)c1ccc(Cl)cc1` [Compound I-30], less than 10 µM; as for `O=C(N=C(Nc1ccc2[nH]c(=O)[nH]c2c1)Nc1ccccc1C(F)(F)F)c1cccc(Cl)c1` [Compound I-3], more than 10 µM. As for `O=C(N=C(Nc1ccc2[nH]ncc2c1)Nc1ccccc1C(F)(F)F)c1cccc(Cl)c1` [II-3], the figure is less than 10 µM; as for `CC(C)(C)c1ccccc1NC(=NC(=O)c1ccc(F)cc1)Nc1ccc2[nH]ncc2c1` [II-8], less than 10 µM. For the compound `N#Cc1cccc(C(=O)N=C(Nc2cccc(C3CC3)c2)Nc2ccc3oc(=O)[nH]c3c2)c1` [Compound I-136], the EC50 was less than 10 µM.

`CC(C)(C)c1ccccc1NC(=NC(=O)c1cccc(Cl)c1)Nc1ccc2[nH]c(=O)[nH]c2c1` [Compound I-7] registered an EC50 of less than 10 µM. As for `N#Cc1ccc(C(=O)N=C(Nc2cccc(C(F)(F)F)c2)Nc2ccc3[nH]c(=O)oc3c2)cc1` [Compound I-105], the figure is more than 10 µM; as for `O=C(N=C(Nc1ccc(C2CC2)cc1)Nc1ccc2[nH]c(=O)oc2c1)c1ccc(C(F)(F)F)cc1` [Compound I-137], less than 10 µM. As to `O=C(N=C(Nc1ccc(-c2ccccc2)cc1)Nc1ccc2[nH]c(=O)oc2c1)c1ccc(F)cc1` [Compound I-32], the half-maximal effective concentration (EC50) is less than 10 µM.

Regarding `O=C(N=C(Nc1ccc(-c2ccccc2)cc1)Nc1ccc2[nH]c(=O)oc2c1)c1ccc(Br)cc1` [Compound I-29], the concentration for a half-maximal effect (EC50) is less than 10 µM. `O=C(N=C(NCCc1c[nH]cn1)Nc1ccccc1C(F)(F)F)c1ccc(Cl)cc1` [III-2]: the half-maximal effective concentration (EC50) was more than 10 µM. For `Cn1c(=O)oc2cc(NC(=NC(=O)c3ccc(C(F)(F)F)cc3)Nc3ccccc3C(C)(C)C)ccc21` [Compound I-134] the value was more than 10 µM.
